These results are taken from US5859027A, “Antimicrobial agent” (ChekTec Corporation, priority 1997, dated 1999).

For one data set, the system named is Fungal cells. Briefly: Disk diffusion assay for antimicrobial activity (Example 2), zone of growth inhibition. The format is cell-based. The note with it: for zone of growth inhibition, diameter / zone of inhibition at 100 µg/disc: 37° C., 24 hours; for zone of inhibition at 100 µg/disc: 100 μg per 6 mm disk, read-out: zone of growth inhibition, diameter. How it is done:
(§1) Fungal cells were grown overnight from a single colony in 2-5 ml Sabouraud Dextrose Broth at 37° C. 1-5×10^6 were spread onto Sabouraud Dextrose Agar plates (Difco, Detroit, Mich.). Sterile 6 mm filter disks were evenly spaced with at least about 22 mm separation on the plates. To each disk, 100 μg of a compound to be tested was applied in 5-10 μl DMSO. On each plate, two disks containing 2.5 and 10 μg, respectively, of Amphotericin B (Sigma) and two disks containing 2.5 and 10 μg, respectively, of cerulenin (Sigma) were used as positive controls. A disk containing only DMSO served as the negative control. The plates were incubated at 37° C. for 24 hours and the zone of growth inhibition about each disk was visually examined and measured. Compound A and compound B typically produced clear zones of 8-12 mm diameter. Amphotericin B typically produced a clear zone of 8-10 mm diameter. Cerulenin typically produced a hazy zone of 20-25 mm diameter. A clear zone is indicative of fungicidal activity, while a hazy zone is indicative of fungistatic activity.
(In general: In agar diffusion tests the substance spreads into inoculated agar from a disc or well.)

For data set [1], the system named is C. albicans strain ATCC 10231. Briefly: Murine systemic model of candidiasis. The note with it: for % Survival: 10 mg/kg IP one hour after inoculation, after nine days. Format: in vivo, mice. As for the experimental part: (§2) In vivo activity was determined using a murine systemic model of candidiasis. Groups of 5 to 10 mice were inoculated IV with 1-2×10^7 cells of C. albicans strain ATCC 10231 (10 times the lethal dose). One hour after inoculation, the candidate antifungal compounds were delivered IP. 10 mg/kg of compound A was injected into each mouse of the compound A treatment group. Two separate treatment groups received 30 and 100 mg/kg, respectively, of compound B. Amphotericin B was injected into a positive control treatment group at 10 mg/kg. All compounds were delivered in phosphate-buffered saline (PBS) and one treatment group received PBS. Twice daily thereafter the mice were observed, the number of dead mice recorded, and the dead mice removed. After nine days, the total mortality over the period was determined.

Data set [2] concerns the target T1, FAS of C. Albicans strain 4918 (Candida albicans, UniProt P34731+P43098).
T1 construct: endogenous in cells; host or cells: Candida albicans strain 4918 (from Dr. Ronald Cihlar, Georgetown University Medical Center)
Briefly: FAS activity in extracts of treated C. Albicans cultures (Example 10). Format: cell-based. The note with it: read-out: Percent Remaining FAS Activity. As for the experimental part: C. Albicans strain 4918 (available from Dr. Ronald Cihlar, Georgetown University Medical Center, Washington, D.C.) was grown in minimal medium (M63 media available from Difco, Detroit, Mich.) at 37° C. to mid-log phase. 10 μg/ml cerulenin and 25 μg/ml of compound B were added to separate cultures. At 15 minute intervals, 20 ml samples were removed and extracts prepared by mechanical extraction as in Example 1C, except that the ammonium sulfate precipitation step was not applied. The extract was diluted to 1 ml to form a solution containing 0.4M potassium phosphate, pH 7.3, 0.125 μM dithiothreitol, 50 μM acetyl-CoA, 100 μM NADPH. After incubation at 37° C. for 5 minutes, 100 μM malonyl-CoA containing 0.5 μCi [2-^14 C]-malonyl-CoA (Amersham, Arlington Heights, Ill.). After 10 minutes at 37° C., the fatty acid synthesis reaction was terminated by adding 30 μl of 60% perchloric acid (v/v) and 1 ml ethanol. Four volumes of pet. ether were added to each reaction incubation to extract the fatty acids. The relative incorporation of malonyl-CoA into fatty acids was determined by liquid scintillation counting.

Data set [3] deals with Candida Albicans strain B311A. Briefly: MIC assay (Example 1B). Format: cell-based. The note with it: for MIC: Candida albicans. How it is done: The fractions from the purification were tested for antifungal activity against C. albicans (strain B311A available from Dr. Paul Actor, Temple University and strains ATCC Nos. 10231 and 10261) and C. tropicalis (strain 13803). […] Prior to the assay for antifungal activity, the fungus to be tested for susceptibility was grown overnight from a single colony in 5 ml of medium at 30° C. This overnight culture was diluted 1:10 with fresh medium and grown at 37° C. for 4 hours. A volume of 5 μl of extracts, dissolved in DMSO, was added to each separate well in a series of 96-well plates. 4,000 fungal cells were then added to each plate in 95 μl of medium. The optical densities of the wells were measured and the plates incubated at 37° C. The optical densities were again measured after 24 and 48 hours. Minimum inhibitory concentrations ("MICs") for the extracts were determined using this procedure wherein the extracts were serially diluted in medium prior to mixing with the 4,000 fungal cells.

Another data set deals with T2, FAS from S. cereviseae (Saccharomyces cerevisiae, UniProt P07149+P19097).
T2 construct: an FAS extract from Saccharomyces cerviseae was prepared; (the yeast itself); host or cells: Fleishmans' freeze dried yeast (Saccharomyces cerevisiae); dialyzed ammonium sulfate precipitate of the lysate
The data set is described as follows: FAS inhibition assay (Example 1C). Format: biochemical. How it is done:
To test the compounds for FAS inhibitory activity, an FAS extract from Saccharomyces cerviseae was prepared. Freeze dried yeast (Fleishmans' freeze dried yeast, Specialty Brands, San Francisco, Calif.) 1 g, was hydrated in 5 mls deionized water for 15 minutes at 4° C. Subsequent extraction steps were conducted at a temperature between 4° C. and 10° C., except that in the cell lysis step the temperature may have briefly exceeded these boundaries. The cells were pelleted by centrifugation; the pelleted volume was measured; and the cells were resuspended in 5 vol. (5 mls per ml cell volume) extraction buffer [125 mM KH2PO4, pH 6.6, 1 mM EDTA, 1 mM DTT, 0.7 μg/ml pepstatin (Boehringer Mannheim, Indianapolis, Ind.), 0.2 μg/ml aprotinin (Boehringer Mannheim, Indianapolis, Ind.), 0.2 μg/ml leupeptin (Boehringer Mannheim, Indianapolis, Ind.)]. The cells were again pelleted and resuspended in 2 vol. extraction buffer. The cells were lysed using a bead mill homogenizer (Biospec Products, Bartlesville, OD) with a volume of glass beads equal to the volume of the yeast cells. The bead mill was operated five times for 1 minute, with 1 minute intervals between operations to allow the water jacket of the bead mill to cool the material in the mill. The lysate was centrifuged at 30,000×g for 30 minutes and the supernate was collected. Ammonium sulfate was added to the supernate to 50% saturation and the mixture was stirred for 30 minutes on ice. […]
105 μl of FAS extract was placed in each well of a polypropylene 96 well plate (Costar Corp. Cambridge, Mass.) and multiple 5 μl dilutions of compound A, compound B or negative control solution were introduced into each of the wells. […] The relative initial reaction rates in each well were measured by measuring the decrease in optical density at 340 nm using a UV Max microtiter plate reader (Molecular Devices, Sunnyvalle, Calif.).

Data set [4] deals with Candida albicans (strains ATCC 10231 and ATCC 10261). Briefly: Disk diffusion assay for antimicrobial activity (Example 2). The format is cell-based. How it is done: as §1
Data set [5] concerns Candida tropicalis (strain ATCC 13803). Described as above. Format: cell-based. How it is done:
as §1

Data set [6] can be described thus: Maximal tolerated dose in mice, IP administration. The settings on record: mouse, in vivo, read-out: maximal tolerated dose (maximum dose that caused no deaths within 72 hours). As for the experimental part:
as §2
Using the same methodology, it was determined that the maximal tolerated dose in these mice (i.e., the maximum dose that caused no deaths within 72 hours following IP administration) of compound B was in excess of 200 mg/kg. The mice treated with 2108B or Amphotericin B injected IP in […] of phosphate buffered saline, pH 7.4 had the following treatment profiles: […]

Setting [7] is: positive control disks with 2.5 and 10 μg.

Values after ≈ are worked out from the molar mass of the structure shown. Read-outs that look alike come from different tables or passages of the source. A value given as a limit tells only on which side of the number the result lay.

T1 sequence (P43098 whole entry): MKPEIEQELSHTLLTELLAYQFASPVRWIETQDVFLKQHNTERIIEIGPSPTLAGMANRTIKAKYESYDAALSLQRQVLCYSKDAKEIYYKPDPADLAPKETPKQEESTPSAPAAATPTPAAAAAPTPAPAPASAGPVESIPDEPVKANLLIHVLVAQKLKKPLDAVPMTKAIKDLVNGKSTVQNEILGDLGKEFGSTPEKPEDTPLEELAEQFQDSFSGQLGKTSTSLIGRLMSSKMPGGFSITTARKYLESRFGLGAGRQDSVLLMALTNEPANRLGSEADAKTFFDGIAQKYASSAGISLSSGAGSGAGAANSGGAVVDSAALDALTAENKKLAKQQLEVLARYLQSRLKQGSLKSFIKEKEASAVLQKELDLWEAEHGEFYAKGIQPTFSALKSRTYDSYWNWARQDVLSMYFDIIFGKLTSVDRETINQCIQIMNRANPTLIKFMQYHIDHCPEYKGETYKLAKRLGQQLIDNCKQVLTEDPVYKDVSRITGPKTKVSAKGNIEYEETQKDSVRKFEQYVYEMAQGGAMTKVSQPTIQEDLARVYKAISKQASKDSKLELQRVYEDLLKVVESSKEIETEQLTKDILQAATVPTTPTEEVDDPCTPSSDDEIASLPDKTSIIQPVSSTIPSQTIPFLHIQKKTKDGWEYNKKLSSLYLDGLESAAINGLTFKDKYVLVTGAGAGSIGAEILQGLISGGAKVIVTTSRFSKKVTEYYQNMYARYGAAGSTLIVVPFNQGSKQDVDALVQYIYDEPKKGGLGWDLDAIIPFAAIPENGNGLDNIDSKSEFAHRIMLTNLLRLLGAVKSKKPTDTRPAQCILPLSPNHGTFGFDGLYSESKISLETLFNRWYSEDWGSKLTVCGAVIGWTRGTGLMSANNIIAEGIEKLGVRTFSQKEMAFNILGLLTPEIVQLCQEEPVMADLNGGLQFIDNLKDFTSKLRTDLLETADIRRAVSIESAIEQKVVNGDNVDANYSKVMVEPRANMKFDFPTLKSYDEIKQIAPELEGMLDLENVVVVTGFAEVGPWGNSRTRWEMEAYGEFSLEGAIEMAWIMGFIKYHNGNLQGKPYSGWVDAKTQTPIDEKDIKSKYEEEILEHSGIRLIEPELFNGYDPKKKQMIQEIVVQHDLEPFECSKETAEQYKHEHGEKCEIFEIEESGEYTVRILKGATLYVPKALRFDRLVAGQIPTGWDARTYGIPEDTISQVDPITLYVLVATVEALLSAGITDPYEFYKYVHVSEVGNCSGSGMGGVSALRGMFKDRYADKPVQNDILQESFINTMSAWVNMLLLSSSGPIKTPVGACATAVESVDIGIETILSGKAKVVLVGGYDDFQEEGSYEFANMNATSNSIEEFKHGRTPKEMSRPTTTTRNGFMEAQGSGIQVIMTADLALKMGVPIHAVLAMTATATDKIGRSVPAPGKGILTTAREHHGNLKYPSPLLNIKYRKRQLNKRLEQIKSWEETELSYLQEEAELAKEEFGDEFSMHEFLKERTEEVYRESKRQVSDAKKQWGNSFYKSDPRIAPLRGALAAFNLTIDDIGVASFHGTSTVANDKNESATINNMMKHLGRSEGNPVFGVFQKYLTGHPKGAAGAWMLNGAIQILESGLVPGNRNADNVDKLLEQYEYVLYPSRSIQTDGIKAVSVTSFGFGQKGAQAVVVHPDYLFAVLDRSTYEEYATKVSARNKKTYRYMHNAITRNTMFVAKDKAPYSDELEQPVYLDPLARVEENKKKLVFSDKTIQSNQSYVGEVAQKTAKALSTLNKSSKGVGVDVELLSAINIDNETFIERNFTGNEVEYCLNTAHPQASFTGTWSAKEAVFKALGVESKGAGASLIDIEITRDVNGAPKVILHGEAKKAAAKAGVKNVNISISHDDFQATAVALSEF
T1 sequence (P34731 whole entry): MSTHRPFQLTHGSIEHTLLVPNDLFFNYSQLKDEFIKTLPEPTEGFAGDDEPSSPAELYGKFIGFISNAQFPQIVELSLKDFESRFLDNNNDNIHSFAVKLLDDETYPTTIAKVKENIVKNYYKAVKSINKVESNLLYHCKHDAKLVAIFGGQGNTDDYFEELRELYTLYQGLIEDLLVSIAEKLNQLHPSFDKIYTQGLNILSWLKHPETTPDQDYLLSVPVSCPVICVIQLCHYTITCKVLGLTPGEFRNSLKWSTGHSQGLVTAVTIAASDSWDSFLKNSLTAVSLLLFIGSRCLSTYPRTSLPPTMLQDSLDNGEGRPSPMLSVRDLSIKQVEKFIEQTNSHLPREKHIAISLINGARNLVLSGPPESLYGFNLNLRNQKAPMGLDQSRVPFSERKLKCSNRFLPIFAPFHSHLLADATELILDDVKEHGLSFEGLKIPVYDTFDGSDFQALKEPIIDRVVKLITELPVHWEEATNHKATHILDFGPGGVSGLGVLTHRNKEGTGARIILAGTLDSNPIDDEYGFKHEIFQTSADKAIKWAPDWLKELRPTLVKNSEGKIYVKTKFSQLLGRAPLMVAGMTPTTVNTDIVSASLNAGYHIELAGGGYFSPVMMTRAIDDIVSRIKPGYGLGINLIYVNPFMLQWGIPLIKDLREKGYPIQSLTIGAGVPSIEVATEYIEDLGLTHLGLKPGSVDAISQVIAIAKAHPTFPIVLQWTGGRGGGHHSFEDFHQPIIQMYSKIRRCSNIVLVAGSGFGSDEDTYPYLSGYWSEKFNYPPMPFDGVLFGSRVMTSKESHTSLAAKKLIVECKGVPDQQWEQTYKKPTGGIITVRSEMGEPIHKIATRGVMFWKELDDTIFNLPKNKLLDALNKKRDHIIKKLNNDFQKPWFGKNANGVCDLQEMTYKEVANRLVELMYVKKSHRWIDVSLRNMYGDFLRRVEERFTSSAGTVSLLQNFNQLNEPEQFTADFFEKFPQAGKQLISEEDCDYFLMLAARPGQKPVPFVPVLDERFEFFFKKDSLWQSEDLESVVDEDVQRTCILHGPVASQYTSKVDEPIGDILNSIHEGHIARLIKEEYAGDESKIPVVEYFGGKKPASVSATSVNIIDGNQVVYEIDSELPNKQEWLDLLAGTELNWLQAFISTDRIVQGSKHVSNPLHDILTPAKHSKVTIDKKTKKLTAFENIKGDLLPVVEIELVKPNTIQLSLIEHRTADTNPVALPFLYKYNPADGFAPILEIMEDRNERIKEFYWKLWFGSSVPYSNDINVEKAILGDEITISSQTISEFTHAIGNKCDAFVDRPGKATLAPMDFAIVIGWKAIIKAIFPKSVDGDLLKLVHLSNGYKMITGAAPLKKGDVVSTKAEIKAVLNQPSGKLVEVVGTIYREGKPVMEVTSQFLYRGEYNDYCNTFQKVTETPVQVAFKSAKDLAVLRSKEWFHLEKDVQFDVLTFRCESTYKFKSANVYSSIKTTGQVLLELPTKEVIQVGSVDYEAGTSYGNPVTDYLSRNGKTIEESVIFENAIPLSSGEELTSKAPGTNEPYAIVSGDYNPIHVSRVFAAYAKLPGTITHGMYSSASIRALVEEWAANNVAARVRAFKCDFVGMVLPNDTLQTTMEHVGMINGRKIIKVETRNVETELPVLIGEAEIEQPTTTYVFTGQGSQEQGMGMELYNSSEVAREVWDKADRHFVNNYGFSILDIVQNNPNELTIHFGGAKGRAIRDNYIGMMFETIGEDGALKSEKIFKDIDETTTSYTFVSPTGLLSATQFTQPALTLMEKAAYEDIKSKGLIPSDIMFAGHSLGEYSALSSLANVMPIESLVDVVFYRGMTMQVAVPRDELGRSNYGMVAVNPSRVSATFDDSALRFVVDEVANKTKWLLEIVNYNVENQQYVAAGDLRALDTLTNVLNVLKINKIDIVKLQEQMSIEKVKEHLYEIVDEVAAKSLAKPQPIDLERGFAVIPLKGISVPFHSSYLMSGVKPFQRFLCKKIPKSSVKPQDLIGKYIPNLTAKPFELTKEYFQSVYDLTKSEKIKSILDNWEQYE

For `C[C@@H]1[C@H](O)[C@@H](C)/C=C/C=C/C=C/C=C/C=C/C=C/C=C/[C@H](O[C@@H]2O[C@H](C)[C@@H](O)[C@H](N)[C@@H]2O)C[C@@H]2O[C@](O)(C[C@@H](O)C[C@@H](O)[C@H](O)CC[C@@H](O)C[C@@H](O)CC(=O)O[C@H]1C)C[C@H](O)[C@H]2C(=O)O` [Amphotericin B, reference compound], in the data set with Fungal cells (setting [7]), the “zone appearance (clear = fungicidal, hazy = fungistatic)” value (shortened to “zone appearance”) is “clear zone” and the “zone of growth inhibition, diameter” value is listed as 8-10 mm. Besides, in data set [1] (10 mg/kg IP), the “Deaths Each Day Post Inoculation, day 0” value worked out at 0; the “Deaths Each Day Post Inoculation, day 1” value amounted to 0; the “Deaths Each Day Post Inoculation, day 3” value worked out at 0; the “Deaths Each Day Post Inoculation, day 5” value is recorded as 0. In addition, in data set [1] (10 mg/kg IP), the “Deaths Each Day Post Inoculation, day 6” value is 0; the “Deaths Each Day Post Inoculation, day 7” value was 0; the “Deaths Each Day Post Inoculation, day 8” value is given as 0; the “Deaths Each Day Post Inoculation, day 9” value is recorded as 0. Besides, in data set [1], the “% Survival” value was determined as 80%.
Broadly, the remaining activity is what remains of the control signal, in per cent. In the case of `C/C=C/C/C=C/CCC(=O)[C@H]1O[C@H]1C(N)=O` [Cerulenin, cerulenin, reference compound], in the data set with Fungal cells (setting [7]), the “zone appearance” value was “hazy zone” and the “zone of growth inhibition, diameter” value was 20-25 mm. For the same compound, the remaining activity at 10 µg/mL in data set [2] (0.25 h) was 20%. The remaining activity at 10 µg/mL in data set [2] (0.5 h) turned out to be 12%.
Broadly, the MIC is the smallest concentration in the dilution series that meets the test's criterion for growth inhibition. The IC50 is the concentration needed to halve the response being measured. Lower therefore signals greater potency. In general, zone of inhibition refers to the size of the clear area around the sample on an inoculated plate. `C/C=C/C=C/C=C/C1=CC2=CC(=O)C(C)(OC(=O)CC(C)O)C(=O)C23OC3O1` (centres unmarked) [Compound A] registered an MIC in data set [3] (Sabouraud Dextrose Broth substituted for YNB medium) of 50 µg/mL (≈ 129 µM). The same compound had an MIC in data set [3] (YNB medium) of 25 µg/mL (≈ 64.7 µM). Also, in data set [3] (HPLC-purified material, strain not stated), the “activity in the MIC assay of Example 1B (in words)” value is “retained activity”. Besides, at FAS from S. cereviseae, the “FAS inhibition in the in vitro enzyme inhibition assay (in words)” value is listed as “retained activity” and half-maximal inhibition (IC50) was put at 414 µM. Moreover, the zone of inhibition at 100 µg/disc in the data set with Fungal cells lay in the range of 8 to 12 mm. For the same compound, the “zone appearance” value in the data set with Fungal cells (100 μg per disk) was “clear zones”. For the same compound, the “antimicrobial activity (in words)” value in data set [4] is “had antimicrobial activity”. The “antimicrobial activity (in words)” value in data set [5] is reported as “had antimicrobial activity”. Further, the MTD at 72 h in data set [6] was determined as 10 mg/kg. In data set [1] (10 mg/kg IP), the “Deaths Each Day Post Inoculation, day 0” value is listed as 0; the “Deaths Each Day Post Inoculation, day 1” value came to 0; the “Deaths Each Day Post Inoculation, day 2” value is reported as 2; the “Deaths Each Day Post Inoculation, day 3” value was determined as 3. In addition, in data set [1] (10 mg/kg IP), the “Deaths Each Day Post Inoculation, day 4” value was found to be 0; the “Deaths Each Day Post Inoculation, day 5” value is reported as 0; the “Deaths Each Day Post Inoculation, day 6” value was determined as 0; the “Deaths Each Day Post Inoculation, day 7” value stood at 0. In data set [1] (10 mg/kg IP), the “Deaths Each Day Post Inoculation, day 8” value is 0 and the “Deaths Each Day Post Inoculation, day 9” value turned out to be 0. In addition, in data set [1], the “% Survival” value is 0%.
Compound `C/C=C/C=C/C=C/C1=CC2=CC(=O)C(C)(OC(=O)CC(O)CC(C)O)C(=O)C23OC3O1` (centres unmarked) [patulodin, reference compound] had an MIC in data set [3] (YNB medium) of more than 100 µg/mL. Further, the zone of inhibition at 100 µg/disc in the data set on Fungal cells was 7 mm.
